Laboratory results reported in US11685901B2, “Compositions and methods for organoid generation and disease modeling” (Salk Institute for Biological Studies, priority 2016, dated 2023).

Tested on: hiPSC-derived hepatocytes
Test: Lipid accumulation and insulin resistance in hiPSC-derived hepatocytes / human mini liver
Format: cell-based
Conditions: overnight culture
Source text: FIGS. 6A-6H are schematics and images showing generation of functional human mini-organs in a dish. FIG. 6A is a schematic showing generation of functional human mini organs including human islets, pancreas, liver, heart, and intestine. FIGS. 6B-6C show the generation of a human heart organoid. FIG. 6B (top) provides a schematic illustrating the protocol for differentiation of a human pluripotent stem cell (hPSC) into a cardiomyocyte (when cultured in 2D) or into a mini heart (when co-cultured with hADSCs and HUVECs in 3D). FIG. 6B (bottom left) provides a plot showing relative expression of cardiomyocyte-specific genes human MLC2a (hMLC2a), human Nkx2-5 (hNkx2-5), alpha myosin heavy chain (alphaMHC), and KCNQ1 before (day 0) and at day 18 of the differentiation protocol, with and without the PPARδ agonist GW501516. At the bottom right of FIG. 6B is a videomicrograph showing beating of the hiPSC-derived cardiomyocytes. […] FIGS. 6D-6F show generation of a human liver organoid. FIG. 6D (top) provides a schematic illustrating the protocol for differentiation of a human pluripotent stem cell (hPSC) into hepatocytes. FIG. 6D (bottom left) provides a plot showing relative expression of hepatocyte-specific genes AFP, ALB, and Cyp3a7, during the differentiation of 6 independent preparations. At the bottom right of FIG. 6D is a micrograph showing hiPSC-derived hepatocytes. […]

lipid droplets in hiPSC-derived hepatocytes: accumulation of lipid droplets
Substance: phosphatidic acid
